In PMC2770649 (Nucleic Acids Research, 2009):
pIC50: −log10 of the molar value.

Experiments:
human DNA pol β = human DNA pol β (Homo sapiens, UniProt P06746); assay: Reporter-strand displacement assay, 1536-well format, pol β; format: biochemical; conditions: IC50 against pol β, approximate value
human DNA pol ι = biological target: T1, human DNA pol ι (Homo sapiens, UniProt Q9UNA4); assay: Reporter-strand displacement assay, 1536-well format, pol ι; format: biochemical; conditions: IC50 against pol ι, approximate value
T1 sequence (Q9UNA4 1-740): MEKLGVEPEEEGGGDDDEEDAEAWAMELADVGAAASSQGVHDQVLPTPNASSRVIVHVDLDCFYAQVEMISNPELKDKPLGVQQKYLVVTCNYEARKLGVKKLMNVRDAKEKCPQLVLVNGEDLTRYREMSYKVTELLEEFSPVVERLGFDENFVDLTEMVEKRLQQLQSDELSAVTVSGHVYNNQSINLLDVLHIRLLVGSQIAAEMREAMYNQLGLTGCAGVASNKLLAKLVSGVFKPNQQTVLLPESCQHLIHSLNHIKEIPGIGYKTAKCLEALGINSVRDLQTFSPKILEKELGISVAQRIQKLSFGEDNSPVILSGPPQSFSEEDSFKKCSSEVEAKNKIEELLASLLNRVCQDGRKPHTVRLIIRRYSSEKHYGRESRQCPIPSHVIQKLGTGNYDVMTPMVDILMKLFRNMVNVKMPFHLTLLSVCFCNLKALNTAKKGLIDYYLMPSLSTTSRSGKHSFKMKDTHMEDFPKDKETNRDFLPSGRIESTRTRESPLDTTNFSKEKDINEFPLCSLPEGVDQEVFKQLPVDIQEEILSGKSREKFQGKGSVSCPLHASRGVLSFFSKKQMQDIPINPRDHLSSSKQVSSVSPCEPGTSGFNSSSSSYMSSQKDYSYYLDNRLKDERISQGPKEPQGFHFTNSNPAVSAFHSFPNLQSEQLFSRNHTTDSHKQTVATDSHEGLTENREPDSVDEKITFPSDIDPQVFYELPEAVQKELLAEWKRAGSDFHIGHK

| Compound | pIC50 (human DNA pol β) | pIC50 (human DNA pol ι) |
| --- | --- | --- |
| O=C(O)C1=CC(=C(c2ccc(O)c(C(=O)O)c2)c2ccc(O)c(C(=O)O)c2)C=CC1=O [Aurintricarboxylic acid] | ~7.70 | ~7.05 |
| O=c1oc2c(O)c(O)cc3c(=O)oc4c(O)c(O)cc1c4c23 [Ellagic acid] | ~7.70 | ~7.05 |
